Measured values from ChEMBL document CHEMBL4476868, “Benzimidazole derivatives and uses thereof” (2017).

Target: Acetyl-coenzyme A synthetase, cytoplasmic (Homo sapiens, UniProt Q9NR19)
Experiment: Inhibition of N-terminal 6x-histidine tagged human ACSS2 expressed in insect cells assessed as reduction in pyrophosphate production using CoA and ATP incubated for 30 mins by pyrophosphatase coupled enzymatic assay

Sequence of Acetyl-coenzyme A synthetase, cytoplasmic (Q9NR19 whole entry): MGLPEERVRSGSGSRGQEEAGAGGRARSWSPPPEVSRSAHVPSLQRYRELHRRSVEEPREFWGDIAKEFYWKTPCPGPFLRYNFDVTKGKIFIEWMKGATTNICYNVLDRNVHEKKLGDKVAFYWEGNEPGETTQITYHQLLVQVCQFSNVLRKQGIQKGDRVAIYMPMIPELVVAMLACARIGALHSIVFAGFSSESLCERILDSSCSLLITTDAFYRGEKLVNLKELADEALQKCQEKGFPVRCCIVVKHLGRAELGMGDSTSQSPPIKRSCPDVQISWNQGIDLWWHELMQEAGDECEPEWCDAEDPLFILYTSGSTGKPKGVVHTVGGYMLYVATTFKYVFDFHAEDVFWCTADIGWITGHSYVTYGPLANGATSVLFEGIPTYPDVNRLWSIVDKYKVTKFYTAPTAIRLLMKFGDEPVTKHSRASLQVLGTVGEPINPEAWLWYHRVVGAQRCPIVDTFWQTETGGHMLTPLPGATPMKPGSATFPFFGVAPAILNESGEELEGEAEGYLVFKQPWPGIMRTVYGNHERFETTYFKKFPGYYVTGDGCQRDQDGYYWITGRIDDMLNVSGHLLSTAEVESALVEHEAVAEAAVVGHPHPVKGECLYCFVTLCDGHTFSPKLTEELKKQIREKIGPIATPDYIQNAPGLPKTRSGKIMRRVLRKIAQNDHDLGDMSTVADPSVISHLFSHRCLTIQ

| Structure (SMILES) | IC50 [nM] |
| --- | --- |
| CCn1c(C(O)(c2ccccc2)c2ccccc2)nc2cc(F)c(C(=O)NC)cc21 | 50 to 249 |
| CCn1c(C(O)(c2ccccc2)c2ccccc2)nc2ccc(C(F)C#N)cc21 (stereo unspecified) | 50 to 249 |
| CCn1c(C(O)(c2ccccc2)c2ccccc2)nc2ccc(CNC(=O)[C@@H](C)O)cc21 | 250 to 1000 |
| CCn1c(C(O)(c2ccccc2)c2ccccc2)nc2ccc(C(=O)NC[C@@H](C)O)c(OC)c21 | 250 to 1000 |
| CCn1c(C(O)(c2ccccc2)c2ccccc2)nc2ccc(C(O)CO)cc21 (stereo unspecified) | 50 to 249 |
| CCOc1cccc2nc(C(O)(c3ccccc3)c3ccccc3)n(CC)c12 | > 1000 |
| CCS(=O)(=O)c1ccc2nc(C(O)(c3ccccc3)c3ccccc3)n(C)c2c1 | 50 to 249 |
| CCOc1ccc2nc(C(O)(c3ccccc3)c3ccccc3)n(CC)c2c1 | 250 to 1000 |
| C[C@@H](O)CNC(=O)c1ccc2nc(C(O)(c3ccc(F)cc3F)c3ccc(F)cc3F)n(C)c2c1 | 250 to 1000 |
| CNC(=O)c1ccc2nc(C(O)(c3ccc(F)cc3)c3ccc(F)cc3)n(C)c2c1 | 250 to 1000 |
| CCn1c(C(O)(c2ccccc2)c2ccccc2O)nc2ccc(C(=O)NC[C@@H](C)O)cc21 (stereo partly specified) | 50 to 249 |
| Cc1cccc2c1nc(C(O)(c1ccccc1)c1ccccc1)n2C | > 1000 |
| C[C@@H](O)CNC(=O)c1ccc2nc(C(O)(c3ccccc3)c3ccccc3)n(C3CCNCC3)c2c1 | > 1000 |
| CCn1c(C(O)(c2ccccc2)c2ccccc2)nc2ccc(Cl)cc21 | 250 to 1000 |
| C[C@@H](O)CNC(=O)c1ccc2nc(C(O)(c3ccccc3)c3ccccc3)n(CC(O)CO)c2c1 (stereo partly specified) | 250 to 1000 |
| CCn1c(C(O)(c2ccccc2)c2ccccc2)nc2ccc(CCC(=O)NC)cc21 | 50 to 249 |
| C[C@@H](O)CNC(=O)c1ccc2nc(C(O)(c3ccccc3)c3ccccc3)n(C3CCOCC3)c2c1 | > 1000 |
| CCn1c(C(O)(c2ccccc2)c2ccccc2)nc2ccc(F)c(F)c21 | > 1000 |
| CCn1c(C(O)(c2ccccc2)c2ccccc2)nc2cc(F)c(C(=O)NCCO)cc21 | 250 to 1000 |
| CCn1c(C(O)(c2ccccc2)c2ccccc2)nc2ccc(C(=O)Nc3ccccc3)cc21 | 50 to 249 |
| CCn1c(C(O)(c2ccccc2)c2ccccc2)nc2ccc(S(=O)(=O)CC)cc21 | 50 to 249 |
| CCn1c(C(O)(c2ccccc2)c2ccccc2)nc2ccc(C(=O)N[C@@H]3CCC(=O)N(C)C3)cc21 | 250 to 1000 |

| Structure (SMILES) | IC50 [nM] |
| --- | --- |
| C[C@@H](O)CNC(=O)c1ccc2nc(C(c3ccccc3)c3ccccc3)[nH]c2c1 | > 1000 |
| CCn1c(C(O)(c2ccccc2)c2ccccc2)nc2ccc(NC(=O)COC)cc21 | 50 to 249 |
| CCn1c(C(O)(c2ccccc2)c2ccccc2)nc2ccc(CCO)cc21 | 50 to 249 |
| CCn1c(C(O)(c2ccccc2)c2ccccc2)nc2ccc(CNC(=O)[C@H](C)O)cc21 | 250 to 1000 |
| CCn1cc(-c2cc3c(cc2F)nc(C(O)(c2ccccc2)c2ccccc2)n3CC)cn1 | 50 to 249 |
| C[C@@H](O)CNC(=O)c1ccc2nc(C(O)(c3ccccc3)c3ccccc3)n(C3CCNC3)c2c1 (stereo partly specified) | > 1000 |
| CN(C)C(=O)c1cccc(C(O)(c2ccccc2)c2nc3ccc(Cl)cc3n2C)c1 (stereo unspecified) | > 1000 |
| CCn1c(C(O)(c2ccccc2)c2ccccc2)nc2ccc(C(=O)NOCCO)cc21 | 50 to 249 |
| CCn1c(C(O)(c2ccccc2)c2ccccc2F)nc2ccc(C(=O)NCCO)cc21 (stereo unspecified) | 50 to 249 |
| CCn1c(C(O)(c2ccccc2)c2ccccc2)nc2ccc(C(=O)NC(C)C)cc21 | 250 to 1000 |
| CCn1c(C(O)(c2ccccc2F)c2ncccc2C)nc2ccc(CCCO)cc21 (stereo unspecified) | 50 to 249 |
| CCn1c(C(O)(c2ccccc2F)c2ncccc2F)nc2ccc(CCCO)cc21 (stereo unspecified) | 50 to 249 |
| CCn1c(C(O)(c2ccccc2)c2ccccc2)nc2ccc(C(=O)NC3(C#N)CC3)cc21 | 50 to 249 |
| CCn1c(C(O)(c2ccccc2)c2ccccc2)nc2ccc(C(=O)N3CCOCC3)cc21 | > 1000 |
| CCn1c(C(O)(c2ccccc2)c2ccccc2)nc2ccc(C(=O)NC3CCN(C)CC3)cc21 | 250 to 1000 |
| CCONC(=O)c1ccc2nc(C(O)(c3ccccc3)c3ccccc3)n(CC)c2c1 | 50 to 249 |
| CCn1c(C(O)(c2ccccc2)c2ccccc2)nc2ccc(OC)cc21 | 250 to 1000 |
| CCn1c(C(O)(c2ccccc2)c2ccccc2)nc2ccc(CC(O)CO)cc21 (stereo unspecified) | 50 to 249 |
| CCN1CCC[C@H](NC(=O)c2ccc3nc(C(O)(c4ccccc4)c4ccccc4)n(CC)c3c2)C1 | 250 to 1000 |
| CCn1c(C(O)(c2ccccc2)c2ccccc2)nc2ccc(CC(CO)CO)cc21 | 50 to 249 |
| CCn1c(C(O)(c2ccccc2)c2ccccc2)nc2ccc(F)cc21 | > 1000 |
| CCn1c(C(O)(c2ccccc2)c2ccccc2)nc2ccc(C(=O)Nc3cnn(CCO)c3)cc21 | 50 to 249 |

| Structure (SMILES) | IC50 [nM] |
| --- | --- |
| CCn1c(C(O)(c2ccccc2)c2ccccc2)nc2ccc(OCC(C)O)cc21 (stereo unspecified) | > 1000 |
| CCn1c(C(O)(c2ccccc2)c2ccccc2)nc2ccc(OCc3ccccc3)cc21 | 250 to 1000 |
| CCn1c(C(O)(c2ccccc2)c2ccccc2)nc2ccc(C(=O)NC[C@H](C)O)c(F)c21 | 50 to 249 |
| CCn1c(C(c2ccccc2)c2ccccc2)nc2ccc(C(=O)NC)cc21 | > 1000 |
| CCn1c(C(O)(c2ccccc2)c2ccccc2)nc2ccc(C(=O)NC(C)CO)cc21 (stereo unspecified) | 250 to 1000 |
| CCn1c(C(O)(c2ccccc2)c2ccccc2)nc2ccc(C(=O)NCC(O)COC)cc21 (stereo unspecified) | 50 to 249 |
| CCc1cccc(OCc2ccc3nc(C(O)(c4ccccc4)c4ccccc4)n(CC)c3c2)c1 | 50 to 249 |
| CCn1c(C(O)(c2ccccc2)c2ccccc2)nc2ccc(C(=O)N3CC(O)C3)cc21 | 250 to 1000 |
| Cc1ccc2nc(C(O)(c3ccccc3)c3ncccc3F)n(C)c2c1 (stereo unspecified) | > 1000 |
| CCn1c(C(O)(c2ccc(F)cc2F)c2ccc(F)cc2F)nc2ccc(C(=O)NC)cc21 | 50 to 249 |
| CNC(=O)c1ccc2nc(C(O)(c3ccccc3)c3ccccc3)n(C3CC3)c2c1 | 250 to 1000 |
| CCn1c(C(O)(c2ccccc2)c2ccccc2)nc2ccc(C(=O)NC[C@@H](O)CO)cc21 | 50 to 249 |
| CCn1c(C(O)(c2ccccc2)c2ccccc2)nc2ccc(C3(O)CCOCC3)cc21 | > 1000 |
| CCn1c(C(O)(c2ccccc2)c2ccccc2)nc2ccc(C(F)(F)C(=O)NC[C@@H](C)O)cc21 | 50 to 249 |
| CCn1c(C(O)(c2ccc(F)cc2)c2ccc(F)cc2)nc2ccc(C(=O)NC[C@@H](C)O)cc21 | 250 to 1000 |
| Cn1ccc(NC(=O)c2ccc3nc(C(O)(c4ccccc4)c4ccccc4)n(CCO)c3c2)n1 | 50 to 249 |
| CCn1c(C(O)(c2ccccc2)c2ccccc2)nc2ccc(C(=O)N[C@H]3CCC(=O)N(C)C3)cc21 | 50 to 249 |
| CCn1c(C(O)(c2ccccc2)c2ccccc2)nc2ccc(S(=O)(=O)NC[C@@H](C)O)cc21 | 50 to 249 |
| CN1C[C@H](NC(=O)c2ccc3nc(C(O)(c4ccccc4)c4ccccc4)n(C)c3c2)CCC1=O | 50 to 249 |
| CCn1c(C(O)(c2ccccc2)c2ccccc2)nc2ccc(C3(O)CCCCC3)cc21 | 250 to 1000 |
| Cc1cccnc1C(O)(c1ccccc1)c1nc2ccc(C(=O)NC[C@@H](C)O)cc2n1C (stereo partly specified) | 250 to 1000 |
| Cn1c(C(O)(c2ccc(F)cc2F)c2ccc(F)cc2F)nc2ccc(C(=O)NCCO)cc21 | 250 to 1000 |

| Structure (SMILES) | IC50 [nM] |
| --- | --- |
| COc1ccc(C(O)(c2ccccc2)c2nc3ccc(C)cc3n2C)cn1 (stereo unspecified) | > 1000 |
| CC(O)Cn1c(C(O)(c2ccccc2)c2ccccc2)nc2ccc(C(=O)NC[C@@H](C)O)cc21 (stereo partly specified) | 50 to 249 |
| CCn1c(C(O)(c2ccccc2F)c2ccccc2F)nc2ccc(C(=O)N[C@@H]3CCC(=O)N(C)C3)cc21 | 50 to 249 |
| CCn1c(C(O)(c2ccccc2)c2ccccc2)nc2c(F)cc(C(=O)NC[C@@H](C)O)cc21 | 50 to 249 |
| C[C@@H](O)CNC(=O)c1ccc2nc(C(O)(c3ccccc3)c3ncccc3F)n(C)c2c1 (stereo partly specified) | 250 to 1000 |
| CCn1c(C(O)(c2ccccc2F)c2ccccc2F)nc2ccc(C(=O)NCCO)cc21 | 50 to 249 |
| CCn1c(C(O)(c2ccccc2)c2cccc(-c3ncco3)c2)nc2ccc(C(=O)NC)cc21 (stereo unspecified) | > 1000 |
| CCn1c(C(O)(c2ccccc2)c2ccc3cnn(C)c3c2)nc2ccc(C(=O)NC)cc21 (stereo unspecified) | 50 to 249 |
| CCn1c(C(O)(c2ccccc2)c2ccccc2)nc2ccc(C(=O)N(C)C)cc21 | 250 to 1000 |
| CCn1c(C(O)(c2ccccc2)c2ccccc2)nc2ccc(C(O)C(F)(F)F)cc21 (stereo unspecified) | 50 to 249 |
| C[C@@H](O)CNC(=O)c1ccc2nc(C(O)(c3ccccc3)c3ccccc3)n(CC3CCOCC3)c2c1 | > 1000 |
| CCn1ccc(-c2ccc3nc(C(O)(c4ccccc4)c4ccccc4)n(CC)c3c2)n1 | 250 to 1000 |
| CCn1c(C(O)(c2ccccc2)c2ccccc2)nc2ccc(C)c(OC)c21 | 250 to 1000 |
| CCn1c(C(O)(c2ccccc2)c2ccccc2)nc2cnc(OCCO)cc21 | 250 to 1000 |
| CCn1c(C(O)(c2ccccc2)c2ccccc2)nc2ccc(CNC(C)=O)cc21 | 50 to 249 |
| CC(=O)OCC(O)(c1ccccc1)c1nc2ccc(C)cc2n1C (stereo unspecified) | 250 to 1000 |
| CCn1c(C(O)(c2ccc(F)cc2F)c2ncccc2C)nc2ccc(CCCO)cc21 (stereo unspecified) | > 1000 |
| CCn1c(C(O)(c2ccccc2)c2ccccc2)nc2ccc(C3(O)CCOC3)cc21 (stereo unspecified) | > 1000 |
| CCN1CCC[C@@H](NC(=O)c2ccc3nc(C(O)(c4ccccc4)c4ccccc4)n(CC)c3c2)C1 | 250 to 1000 |
| CCn1c(C(O)(c2ccccc2)c2ccccc2)nc2ccc(C(=O)NCC3CCNCC3)cc21 | 50 to 249 |
